In patent US4022791A (priority 1975, dated 1977):

Assays:
[1] = system: Rats; parameters: Rat Jump .5 hr (current at which the animal first jumps) / Rat Jump .5 hr, second value printed in parentheses / Rat Jump 2 hr (current at which the animal first jumps): unit not given here; conditions: in vivo
[2] = system: mice; conditions: mouse, in vivo; for Hot Plate 2 hr (percentage of mice showing analgesia) / Hot Plate .5 hr (percentage of mice showing analgesia): ip; as to Tail Flick .5 hr (percentage of analgesia response): test concentration or dose not given here; as to Tail Flick 2 hr (percentage of analgesia response): test concentration or dose not given here; as to Tail Pinch .5 hr (percentage of mice showing analgesia): test concentration or dose not given here; as to Tail Pinch 2 hr (percentage of mice showing analgesia): test concentration or dose not given here
[3] = system: mice; conditions: mouse, in vivo; for Tail Flick 2 hr (percentage of analgesia response) / Tail Flick .5 hr (percentage of analgesia response): ip; as to Tail Flick .5 hr (percentage of analgesia response): test concentration or dose not given here; as to Tail Flick 2 hr (percentage of analgesia response): test concentration or dose not given here; as to Tail Pinch .5 hr (percentage of mice showing analgesia): test concentration or dose not given here; as to Tail Pinch 2 hr (percentage of mice showing analgesia): test concentration or dose not given here
[4] = system: mice; experiment: animal or person; format: in vivo, mouse; conditions: mouse, in vivo, ip

| Structure (SMILES) | Rat Jump 2 hr (current at which the animal first jumps) ([1]; ip) | Rat Jump .5 hr (current at which the animal first jumps) ([1]; ip) | Hot Plate 2 hr (percentage of mice showing analgesia) [2] | Hot Plate .5 hr (percentage of mice showing analgesia) [2] | Tail Flick 2 hr (percentage of analgesia response) [3] | Tail Flick .5 hr (percentage of analgesia response) [3] | Tail Pinch 2 hr (percentage of mice showing analgesia) [4] | Tail Pinch .5 hr (percentage of mice showing analgesia) [4] | activity in the Rat Jump Test [1] | activity in the Hot Plate test [2] | activity in the Tail Flick test [3] | Rat Jump .5 hr, second value printed in parentheses ([1]; ip) |
| --- | --- | --- | --- | --- | --- | --- | --- | --- | --- | --- | --- | --- |
| COc1ccc(Cl)c2c1CCC(CN1CC=C(c3ccc(Cl)cc3)CC1)=C2 | 1.2 | 1.2 | 0 | 0 | 0 | 0 | 0 | 0 |  |  |  |  |
| COc1ccc(Cl)c2c1CCC(CN(C)CCN1CCCC1)=C2 | 1.2 | 1.2 | 0 | 0 | 0 | 0 | 0 | 0 |  |  |  |  |
| COc1ccc(Cl)c2c1CCC(CN1CCN(C)CC1)=C2 | 1.2 | 1.2 | 0 | 60 | 0 | 30 | 0 | 80 |  |  |  |  |
| COc1ccc(Cl)c2c1CCC(CN1CCC(C(N)=O)CC1)=C2 | 0.6 | 0.6 | 70 | 90 | 0 | 70 | 0 | 0 |  |  |  |  |
| COc1ccc(Cl)c2c1CCC(CN1CCN(CCO)CC1)=C2 | 1.2 | 1.2 | 20 | 50 | 0 | 10 | 0 | 40 |  |  |  |  |
| COc1ccc(Cl)c2c1CCC(CN1CCC(c3ccccc3)CC1)=C2 | 1.2 | 1.2 | 0 | 30 | 0 | 0 | 0 | 0 |  |  |  |  |
| COc1ccc(Cl)c2c1CCC(CN1CCC(O)(c3ccccc3)CC1)=C2 | 1.2 | 1.2 | 0 | 50 | 0 | 30 | 0 | 0 |  |  |  |  |
| COc1ccc(Cl)c2c1CCC(CN1CCC(C(=O)N3CCOCC3)CC1)=C2 | 1.2 | 1.2 |  |  |  |  |  |  |  |  |  |  |
| COc1ccc(Cl)c2c1CCC(CN1CCC(C(=O)N(C)C)CC1)=C2 | 1.2 | 1.2 |  |  |  |  |  |  |  |  |  |  |
| COc1ccc(Cl)c2c1CCC(CN1CCCC1)=C2C [reference compound] |  |  |  |  |  |  |  |  | inactive | marginal activity | marginal activity |  |
| COc1ccc(Cl)c2c1CCC(CN1CCC(OC(C)=O)(c3ccccc3)CC1)=C2 [drawing 79] | > 2.2 | > 2.2 | 80 | 100 | 70 | 90 | 100 | 100 |  |  |  |  |
| COc1ccc(Cl)c2c1CCC(CN1CCSC1)=C2 | 1.2 | 1.2 | 0 | 0 | 0 | 0 | 0 | 0 |  |  |  |  |
| CCC(=O)OC1CCN(CC2=Cc3c(Cl)ccc(OC)c3CC2)CC1 | 1.2 | 1.2 | 0 | 0 | 0 | 20 | 0 | 0 |  |  |  |  |
| CN1CC[C@]23c4c5ccc(O)c4O[C@H]2[C@@H](O)C=C[C@H]3[C@H]1C5.O=S(=O)(O)O [Morphine Sulfate, reference compound] |  | > 2.2 |  |  | 100 | 100 |  |  |  |  |  |  |
| COc1ccc(Cl)c2c1CCC(CN1CCC(C)CC1)=C2 | 1.2 | 1.2 | 0 | 10 | 0 | 0 | 0 | 0 |  |  |  |  |
| COc1ccc(Cl)c2c1CCC(CN1CCC(O)CC1)=C2 | 1.2 | 1.2 | 0 | 0 | 0 | 0 | 0 | 0 |  |  |  |  |
| COc1ccc(Cl)c2c1CCC(CN1CCN(c3ccc(Cl)cc3)CC1)=C2 | 1.2 | 1.2 | 0 | 10 | 0 | 0 | 0 | 0 |  |  |  |  |
| CNC(=O)C1CCN(CC2=Cc3c(Cl)ccc(OC)c3CC2)CC1 | 1.2 | 1.2 | 0 | 60 | 0 | 40 | 0 | 0 |  |  |  |  |
| COc1ccc(Cl)c2c1CCC(CN1CCC(C(N)=O)(N3CCCCC3)CC1)=C2 | 1.6 | 1.2 |  |  |  |  |  |  |  |  |  |  |
| COc1ccc(Cl)c2c1CCC(CN1CCCC1)=C2 [pyrrolidino, 1-(2-[3,4-Dihydro-8-chloro-5-methoxynaphthyl]methyl)pyrrolidine] | 2.2 | 1.2 | 0 | 80 | 0 | 60 | 0 | 20 |  |  |  | 2.2 |
| COc1ccc(Cl)c2c1CCC(CN(C)C)=C2 [N(CH3)2] | 0.6 | 1.2 | 0 | 0 | 0 | 0 | 0 | 0 |  |  |  |  |
| COc1ccc(Cl)c2c1CCC(CN1CCN(c3cccc(C(F)(F)F)c3)CC1)=C2 | 1.2 | 1.2 | 0 | 10 | 0 | 0 | 0 | 0 |  |  |  |  |
| COc1ccc(N2CCN(CC3=Cc4c(Cl)ccc(OC)c4CC3)CC2)cc1 | 1.2 | 1.2 | 0 | 0 | 0 | 0 | 0 | 0 |  |  |  |  |
| CCOC1(c2ccccc2)CCN(CC2=Cc3c(Cl)ccc(OC)c3CC2)CC1 | 1.2 | 1.2 | 0 | 50 | 0 | 10 | 20 | 0 |  |  |  |  |
| COc1ccc(Cl)c2c1CCC(CN1CCC(O)(c3ccc(Cl)cc3)CC1)=C2 | 1.6 | 1.2 | 0 | 20 | 0 | 0 | 0 | 0 |  |  |  |  |
